These results are taken from patent US10899738B2 (THE REGENTS OF THE UNIVERSITY OF MICHIGAN, priority 2016, dated 2021).

For orientation: IC50 means the midpoint of a concentration-inhibition curve.

Experiment [1] in a line: Cell growth inhibition, CellTiter-Glo Luminescent Cell Viability Assay. The experiment is classed as cell-based. In outline:
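Cells seeded at 2,000/well with serially diluted compound and cultured 4 days at 37 °C, 5% CO2. Viability read by CellTiter-Glo luminescence; IC50 derived from dose-response.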
On the technique in general: In ATP-based viability assays light output follows the ATP content of the culture.

Another experiment concerns the target menin protein (Homo sapiens (Human), UniProt O00255). As to the kind of experiment: biochemical. The experiment is classed as binding. Conditions: FP competitive binding; menin protein 4 nM, FAM-MM2 probe 2 nM; read-out: Menin Binding Affinity IC50. In outline: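 Competitive fluorescence polarization assay using FAM-labelled MLL1 peptide probe FAM-MM2 (2 nM final) preincubated with menin (4 nM final) in PBS with 0.02% bovine γ-globulin, 4% DMSO and 0.01% Triton X-100. Compounds were added and incubated 30 min at room temperature. IC50 came from nonlinear regression of competition curves, with Ki also derived.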

Where [2] appears, read: MOLM-13, 96 h, read-out: Cell Growth Inhibition IC50 (μM) MOLM13, MOLM13 cells, 4 days, CellTiter-Glo.
Setting [3] is: MV4-11, 96 h, read-out: Cell Growth Inhibition IC50 (μM) MV4, 11, MV4, 11 cells, 4 days, CellTiter-Glo.
Setting [4] is: MOLM-13, 96 h, MOLM13 cells, 4 days, CellTiter-Glo, read-out: Cell Growth Inhibition IC50 (μM) MOLM13.
Where [5] appears, read: MV4-11, 96 h, MV4, 11 cells, 4 days, CellTiter-Glo, read-out: Cell Growth Inhibition IC50 (μM) MV4, 11.

Where two headings read alike, the source gives them in different places.

menin protein, sequence (O00255 whole entry): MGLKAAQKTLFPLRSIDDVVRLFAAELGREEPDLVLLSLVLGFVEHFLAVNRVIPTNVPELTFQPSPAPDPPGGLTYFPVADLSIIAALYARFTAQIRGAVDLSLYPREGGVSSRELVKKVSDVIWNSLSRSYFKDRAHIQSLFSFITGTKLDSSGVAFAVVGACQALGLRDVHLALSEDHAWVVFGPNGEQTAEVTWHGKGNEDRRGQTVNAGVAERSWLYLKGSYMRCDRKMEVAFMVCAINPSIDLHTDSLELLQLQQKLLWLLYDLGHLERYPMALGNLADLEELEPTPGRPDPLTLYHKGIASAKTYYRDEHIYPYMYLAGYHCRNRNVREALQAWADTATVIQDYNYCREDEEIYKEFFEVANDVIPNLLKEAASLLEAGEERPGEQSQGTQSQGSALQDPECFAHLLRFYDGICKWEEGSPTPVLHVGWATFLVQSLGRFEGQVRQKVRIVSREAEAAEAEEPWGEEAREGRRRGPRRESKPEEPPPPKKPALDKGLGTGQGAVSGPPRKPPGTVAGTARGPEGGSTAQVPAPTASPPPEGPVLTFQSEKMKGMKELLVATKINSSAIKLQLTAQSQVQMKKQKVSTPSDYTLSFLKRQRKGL

`CC(=O)O[C@H]1CCC[C@@H]1C(C#N)(c1ccccc1)C1CCN(CC2CN(c3ccc(S(=O)(=O)c4ccncc4)cc3)C2)CC1` (mixture of isomers) [compound 185, rac-(1S,2R)-2-(cyano(phenyl)(1-((1-(4-(pyridin-4-ylsulfonyl)phenyl)azetidin-3-yl)methyl)piperidin-4-yl)methyl)cyclopentyl acetate]: the figures for the IC50 (in experiment [1] (setting [2]); in experiment [1] (setting [3]); at menin protein) were 0.783 ± 0.474 µM, 0.624 ± 0.165 µM and 0.007 µM, respectively.

With `O=S(=O)(c1ccncc1)c1ccc(N2CC(CN3CCC(C4(C5CCCC5)CN(C5CCC5)Cc5ccccc54)CC3)C2)cc1` (stereo not drawn) [compound 49, 2-cyclobutyl-4-cyclopentyl-4-(1-((1-(4-(pyridin-4-ylsulfonyl)phenyl)azetidin-3-yl)methyl)piperidin-4-yl)-1,2,3,4-tetrahydroisoquinoline], the IC50 in experiment [1] (setting [4]) is 4 µM; in experiment [1] (setting [5]), 0.898 µM; on menin protein, 0.009 µM.

Take `CN1Cc2ccccc2C(C2CCN(CC3CN(c4ccc(S(=O)(=O)c5ccncc5)cc4)C3)CC2)([C@H]2CCC[C@@H]2OC(N)=O)C1` (mixture of isomers) [compound 219, rac-(1S,2R)-2-(2-methyl-4-(1-((1-(4-(pyridin-4-ylsulfonyl)phenyl)azetidin-3-yl)methyl)piperidin-4-yl)-1,2,3,4-tetrahydroisoquinolin-4-yl)cyclopentyl carbamate]: the IC50 in experiment [1] (setting [2]) was found to be 0.236 µM; in experiment [1] (setting [3]) it was 0.074 ± 0.011 µM; at menin protein, 0.003 µM.

In the case of `O=S(=O)(c1ccncc1)c1ccc(N2CC(CN3CCC(C4(C5CCCC5)NCCc5ccccc54)CC3)C2)cc1` (stereo not drawn) [compound 151, 1-cyclopentyl-1-(1-((1-(4-(pyridin-4-ylsulfonyl)phenyl)azetidin-3-yl)methyl)piperidin-4-yl)-1,2,3,4-tetrahydroisoquinoline], the IC50 in experiment [1] (setting [4]) came to 0.627 µM; in experiment [1] (setting [5]), 1.3 µM; on menin protein it was 0.015 µM.

For the compound `N#CC(c1ccccc1)(C1CCN(CC2CN(c3ccc(S(=O)(=O)c4ccncc4)cc3)C2)CC1)[C@H]1CCC[C@@H]1OC(N)=O` (mixture of isomers) [compound 211, rac-(1S,2R)-2-(cyano(phenyl)(1-((1-(4-(pyridin-4-ylsulfonyl)phenyl)azetidin-3-yl)methyl)piperidin-4-yl)methyl)cyclopentyl carbamate], the IC50 in experiment [1] (setting [2]) turned out to be 0.546 µM; in experiment [1] (setting [3]), 0.302 µM; on menin protein it was 0.009 µM.

For the compound `O=S(=O)(c1ccc(N2CC(CN3CCC(C4(C5CCCC5)NCCc5ccccc54)CC3)C2)cc1)C1CCCC1` (stereo not drawn) [compound 146, 1-cyclopentyl-1-(1-((1-(4-(cyclopentylsulfonyl)phenyl)azetidin-3-yl)methyl)piperidin-4-yl)-1,2,3,4-tetrahydroisoquinoline], the IC50 came out at 1.9 ± 1.2 µM in experiment [1] (setting [4]), 0.785 ± 0.247 µM in experiment [1] (setting [5]) and 0.013 µM at menin protein.

For `CC(=O)N[C@@H]1CCC[C@H]1C1(C2CCN(CC3CN(c4ccc(S(=O)(=O)c5ccncc5)cc4)C3)CC2)CN(C)Cc2ccccc21` (mixture of isomers) [compound 272, rac-N-((1R,2S)-2-(2-methyl-4-(1-((1-(4-(pyridin-4-ylsulfonyl)phenyl)azetidin-3-yl)methyl)piperidin-4-yl)-1,2,3,4-tetrahydroisoquinolin-4-yl)cyclopentyl)acetamide], the IC50 in experiment [1] (setting [2]) stood at 2.97 µM; in experiment [1] (setting [3]), 4.29 ± 1.45 µM; on menin protein it was 0.18 µM.

Take `COC(=O)N[C@H]1CCC[C@@H]1C(Cn1ccnc1)(c1ccccc1)C1CCN(CC2CN(c3ccc(S(=O)(=O)c4cnn(C)c4)cc3)C2)CC1` (mixture of isomers) [compound 392, methyl rac-((1S,2R)-2-(2-(1H-imidazol-1-yl)-1-(1-((1-(4-((1-methyl-1H-pyrazol-4-yl)sulfonyl)phenyl)azetidin-3-yl)methyl)piperidin-4-yl)-1-phenylethyl)cyclopentyl) carbamate]: the figures for the IC50 (in experiment [1] (setting [2]); in experiment [1] (setting [3]); on menin protein) were 0.76 ± 0.32 µM, 0.084 ± 0.032 µM and 0.007 µM, respectively.

Regarding `CCc1nccn1CC(c1ccccc1)(C1CCN(CC2CN(c3ccc(C#N)cc3)C2)CC1)[C@H]1CCC[C@@H]1OC(=O)NC` (mixture of isomers) [compound 408, rac-(1S,2R)-2-(1-(1-((1-(4-cyanophenyl)azetidin-3-yl)methyl)piperidin-4-yl)-2-(2-ethyl-1H-imidazol-1-yl)-1-phenylethyl)cyclopentyl methylcarbamate], the results for the IC50 (in experiment [1] (setting [2]); in experiment [1] (setting [3]); on menin protein) were 0.017 ± 0.007 µM, 0.005 ± 0.002 µM and 0.003 µM, respectively.

Take `CNS(=O)(=O)c1ccc(N2CC(CN3CCC(C4(C5CCCC5)NCCc5c(F)cccc54)CC3)C2)cc1` (stereo not drawn) [compound 119, 4-(3-((4-(1-cyclopentyl-5-fluoro-1,2,3,4-tetrahydroisoquinolin-1-yl)piperidin-1-yl)methyl)azetidin-1-yl)-N-methylbenzenesulfonamide]: the figures for the IC50 (in experiment [1] (setting [4]); in experiment [1] (setting [5]); on menin protein) were 1.3 µM, 1.8 µM and 0.015 µM, respectively.

As for `CNC(=O)O[C@H]1CCC[C@@H]1C(C#N)(c1ccccc1)C1CCN(CC2(F)CN(c3ccc(S(=O)(=O)c4cnn(C)c4)cc3)C2)CC1` (mixture of isomers) [compound 369, rac-(1S,2R)-2-(cyano(1-((3-fluoro-1-(4-((1-methyl-1H-pyrazol-4-yl)sulfonyl)phenyl)azetidin-3-yl)methyl)piperidin-4-yl)(phenyl)methyl)cyclopentyl methylcarbamate], the IC50 is 7.71 µM in experiment [1] (setting [2]), 3.5 µM in experiment [1] (setting [3]) and 0.068 µM on menin protein.

Consider `CC(=O)N[C@H]1CCC[C@@H]1C1(C2CCN(CC3CN(c4ccc(S(=O)(=O)c5cnn(C)c5)cc4)C3)CC2)CNCc2ccccc21` (mixture of isomers) [compound 286, rac-N-((1S,2R)-2-(4-(1-((1-(4-((1-methyl-1H-pyrazol-4-yl)sulfonyl)phenyl)azetidin-3-yl)methyl)piperidin-4-yl)-1,2,3,4-tetrahydroisoquinolin-4-yl)cyclopentyl)acetamide], for which the IC50 in experiment [1] (setting [2]) worked out at 5.69 µM; in experiment [1] (setting [3]), 0.48 µM; on menin protein, 0.004 µM.

Regarding `CCN1Cc2ccccc2C(C2CCN(CC3CN(c4ccc(S(=O)(=O)c5cnn(C)c5)cc4)C3)CC2)([C@H]2CCC[C@@H]2NC(C)=O)C1` (mixture of isomers) [Cpd. No. 292, rac-N-((1S,2R)-2-(2-ethyl-4-(1-((1-(4-((1-methyl-1H-pyrazol-4-yl)sulfonyl)phenyl)azetidin-3-yl)methyl)piperidin-4-yl)-1,2,3,4-tetrahydroisoquinolin-4-yl)cyclopentyl)acetamide], the IC50 in experiment [1] (setting [2]) came to 1.34 µM; in experiment [1] (setting [3]), 0.13 µM; at menin protein it was 0.011 µM.

As for `COC(=O)N[C@H]1CCC[C@@H]1C(C#N)(c1ccccc1)C1CCN(CC2CN(c3ccc(S(=O)(=O)c4ccc(F)cc4)cc3)C2)CC1` (mixture of isomers) [compound 394, methyl rac((1S,2R)-2-(cyano(1-((1-(4-((4-fluorophenyl)sulfonyl)phenyl)azetidin-3-yl)methyl)piperidin-4-yl)(phenyl)methyl)cyclopentyl) carbamate], the IC50 worked out at 1.94 µM in experiment [1] (setting [2]), 0.43 µM in experiment [1] (setting [3]) and 0.015 µM at menin protein.

As for `CCc1nccn1CC(c1ccccc1)(C1CCN(CC2CN(c3ccc(C#N)cc3)C2)CC1)[C@@H]1CCC[C@H]1OC(=O)NC` (mixture of isomers) [compound 409, rac-(1R,2S)-2-(1-(1-((1-(4-cyanophenyl)azetidin-3-yl)methyl)piperidin-4-yl)-2-(2-ethyl-1H-imidazol-1-yl)-1-phenylethyl)cyclopentyl methylcarbamate], the results for the IC50 (in experiment [1] (setting [2]); in experiment [1] (setting [3]); on menin protein) were 1.6 µM, 1.7 µM and 0.116 µM, respectively.

Consider `COC(=O)N[C@H]1CCC[C@@H]1C(C#N)(c1ccccc1)C1CCN(CC2CN(c3ccc(S(=O)(=O)c4ccc(C(N)=O)cc4)cc3)C2)CC1` (mixture of isomers) [compound 399, methyl rac-((1S,2R)-2-((1-((1-(4-((4-carbamoylphenyl)sulfonyl)phenyl)azetidin-3-yl)methyl)piperidin-4-yl)(cyano)(phenyl)methyl)cyclopentyl)carbamate], for which the IC50 in experiment [1] (setting [2]) turned out to be 1.63 µM; in experiment [1] (setting [3]) it was 0.11 µM; at menin protein, 0.007 µM.

Turning to `CNC(=O)N[C@H]1CCC[C@@H]1C1(C2CCN(CC3CN(c4ccc(S(=O)(=O)c5ccncc5)cc4)C3)CC2)CN(C)Cc2ccccc21` (mixture of isomers) [compound 277, rac-1-methyl-3-((1S,2R)-2-(2-methyl-4-(1-((1-(4-(pyridin-4-ylsulfonyl)phenyl)azetidin-3-yl)methyl)piperidin-4-yl)-1,2,3,4-tetrahydroisoquinolin-4-yl)cyclopentyl)urea], the IC50 in experiment [1] (setting [2]) amounted to 0.43 µM; in experiment [1] (setting [3]) it was 0.12 µM; on menin protein, 0.008 µM.

Regarding `COC(=O)N[C@H]1CCC[C@@H]1C(C#N)(c1ccccc1)C1CCN(CC2CN(c3ccc(S(=O)(=O)c4ccc(C(=O)O)cc4)cc3)C2)CC1` (mixture of isomers) [compound 351, rac-4-((4-(3-((4-(cyano((1R,2S)-2-((methoxycarbonyl)amino)cyclopentyl)(phenyl)methyl)piperidin-1-yl)methyl)azetidin-1-yl)phenyl)sulfonyl)benzoic acid], the IC50 was determined as 16.1 µM in experiment [1] (setting [2]), 3.02 µM in experiment [1] (setting [3]) and 0.015 µM on menin protein.
